The target of this assay is T1, human GPR40 (Homo sapiens, UniProt O14842).
T1 construct: expressed in transfected cells
T1 sequence (O14842 whole entry): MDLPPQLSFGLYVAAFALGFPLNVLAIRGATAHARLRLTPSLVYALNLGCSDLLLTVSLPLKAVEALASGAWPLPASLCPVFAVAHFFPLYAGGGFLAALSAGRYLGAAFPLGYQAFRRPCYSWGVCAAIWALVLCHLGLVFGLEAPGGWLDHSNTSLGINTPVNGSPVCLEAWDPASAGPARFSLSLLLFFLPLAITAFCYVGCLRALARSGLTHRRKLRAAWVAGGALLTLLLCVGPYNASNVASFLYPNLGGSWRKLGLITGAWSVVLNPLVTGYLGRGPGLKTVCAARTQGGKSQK
Description: Inositol Phosphate Turnover (IP1) Assay. Format: cell-based. Particulars: HEK cells stably expressing human GPR40, 7500 cells per well, CisBio IP-One kit. How it is done: Human GPR40 stable cell-lines were generated in HEK cells. The expression plasmids were transfected using lipofectamine (Life Technologies) following manufacturer's instructions. Stable cell-lines were generated following drug selection and single cell cloning.
The assay was performed in 384-well format. HEK cells stably expressing human GPR40 were plated at 7500 cells per well in growth medium (DMEM/10% fetal calf serum). Cell plates were then incubated 16 hours at 37 degrees in a 5% CO2 incubator. Measurement of Inositol Phosphate Turnover (IP1) was performed using the CisBio IP-One kit (Part number 62IPAPEB). After the 16 hour incubation, the growth media was removed by centrifugation using the BlueWasher (AusWasher GUI Ver. v1.0.1.8) Protocol #21-“Light Dry” and 10 ul of stimulation buffer (prepared as described in the kit) was added to each well. In a separate plate, compounds were diluted in DMSO (200-fold over the final concentration in the assay well) and 50 nl was acoustically transferred to the appropriate well in the assay cell plate. The plates were then incubated for 60 minutes at 37 degrees in a 5% CO2 incubator. 10 ul of detection buffer (also prepared as described in the IP-One kit) was added to each well and the plates were incubated at room temperature for 60 minutes in the dark. The plates were then read in a Perkin Elmer EnVision or equivalent reader able to measure FRET. Fluorescent ratio of emission at 665 and 620 nm was then converted to IP1 concentration by back calculating from an IP1 standard curve prepared at the time of the assay. Data was normalized to % activity using a reference compound and EC50s determined using a standard 4-parameter fit.
As to `C[C@H](C(=O)O)[C@H](c1ccc2c(c1)OC(CC1CCN([C@H](C)c3cc(C(F)(F)F)ccc3C(F)(F)F)CC1)CC2)C1CC1` (mixture of isomers) [Example 9, (2S,3R)-3-((RS)-2-((1-((R)-1-(2,5-bis(trifluoromethyl)phenyl)ethyl)piperidin-4-yl)-methyl)chroman-7-yl)-3-cyclopropyl-2-methylpropanoic Acid], the EC50 amounted to 63.7 nM. For `CC(c1cc(F)ccc1C(F)(F)F)N1CC2CC1CC2C1CCc2ccc([C@H](C3CC3)[C@H](C)C(=O)O)cc2O1` (mixture of isomers) [Example 39, (2S,3R)-3-cyclopropyl-3-((R or S)-2-((R or S,R or S)-2-((RS)-1-(5-fluoro-2-(trifluoromethyl)-phenyl)ethyl)-2-azabicyclo-[2.2.1]heptan-5-yl)chroman-7-yl)-2-methylpropanoic acid] the value was 44.1 nM; for `C[C@H](C(=O)O)[C@H](c1ccc2c(c1)OC(CCN(C)Cc1cc(C(F)(F)F)ccc1C(F)(F)F)CC2)C1CC1` (mixture of isomers) [Example 41, (2S,3R)-3-(2-(2-((2,5-bis-(trifluoromethyl)benzyl)(methyl)amino)ethyl)chroman-7-yl)-3-cyclopropyl-2-methylpropanic acid], 8.72 nM; for `C[C@H](C(=O)O)[C@H](c1ccc2c(c1)OC(CC1CCN([C@@H](C)c3cc(C(F)(F)F)ccc3C(F)(F)F)CC1)CC2)C1CC1` (mixture of isomers) [Example 12, (2S,3R)-3-((RS)-2-((1-((S)-1-(2,5-bis(trifluoro-methyl)phenyl)ethyl)piperi-din-4-yl)methyl)-chroman-7-yl)-3-cyclopropyl-2-methyl-propanoic acid], 22.3 nM. For `C[C@H](C(=O)O)[C@H](c1ccc2c(c1)OC(C1[C@@H]3CC[C@H]1CN([C@H](C)c1cc(C(F)(F)F)ccc1C(F)(F)F)C3)CC2)C1CC1` (mixture of isomers) [Example 22, (2S,3R)-3-(2-((1R,5S)-3-((R)-1-(2,5-bis(trifluoromethyl)phenyl)ethyl)-3-azabicyclo[3.2.1]octan-8-yl)chroman-7-yl)-3-cyclopropyl-2-methylpropanoic Acid] the value was 45.6 nM; for `C[C@H](C(=O)O)[C@H](c1ccc2c(c1)OC(C1[C@@H]3CC[C@H]1CN([C@H](C)c1cc(C(F)(F)F)ccc1C(F)(F)F)C3)CC2)C1CC1` (mixture of isomers) [Example 23, (2S,3R)-3-(2-((1R,5S)-3-((R)-1-(2,5-bis(trifluoromethyl)phenyl)ethyl)-3-azabicyclo[3.2.1]octan-8-yl)chroman-7-yl)-3-cyclopropyl-2-methylpropanoic Acid], 49.8 nM. `C[C@H](C(=O)O)[C@H](c1ccc2c(c1)OC(C1CC3CCCC(C1)N3[C@H](C)c1cc(C(F)(F)F)ccc1C(F)(F)F)CC2)C1CC1` (mixture of isomers) [Example 32, (2S,3R)-3-((RS)-2-((1R,3RS,5S)-9-((R)-1-(2,5-bis(trifluoromethyl)phenyl)ethyl)-9-azabicyclo[3.3.1]nonan-3-yl)chroman-7-yl)-3-cyclopropyl-2-methylpropanoic Acid]: a half-maximal response (EC50) required 171 nM. As to `C[C@H](C(=O)O)[C@H](c1ccc2c(c1)OC(C1CC3CCCC(C1)N3[C@@H](C)c1cc(C(F)(F)F)ccc1C(F)(F)F)CC2)C1CC1` (mixture of isomers) [Example 33, (2S,3R)-3-((RS)-2-((1R,3RS,5S)-9-((S)-1-(2,5-bis(trifluoromethyl)-phenyl)ethyl)-9-aza-bicyclo[3.3.1]-nonan-3-yl)chroman-7-yl)-3-cyclopropyl-2-methyl-propanoic acid], the EC50 was 750 nM. For `C[C@H](C(=O)O)[C@H](c1ccc2c(c1)OC(C1[C@@H]3COC[C@H]1CN([C@@H](C)c1cc(F)ccc1C(F)(F)F)C3)CC2)C1CC1` (single isomer, unassigned) [Example 7] the value was 11.2 nM.

For the compound `C[C@H](C(=O)O)[C@H](c1ccc2c(c1)OC(C1[C@@H]3COC[C@H]1CN([C@@H](C)c1cc(F)ccc1C(F)(F)F)C3)CC2)C1CC1` (single isomer, unassigned) [Example 8], the EC50 amounted to 11.2 nM. The compound `C[C@H](C(=O)O)[C@H](c1ccc2c(c1)OC(CC1CCN([C@H](C)c3cc(C(F)(F)F)ccc3C(F)(F)F)CC1)CC2)C1CC1` (single isomer, unassigned) [Example 10, (2S,3R)-3-((R or S)-2-((1-((R)-1-(2,5-bis(trifluoromethyl)phenyl)ethyl)piperidin-4-yl)-methyl)chroman-7-yl)-3-cyclopropyl-2-methylpropanoic Acid] had an EC50 of 29.3 nM. For `C[C@H](C(=O)O)[C@H](c1ccc2c(c1)OC(CC1CCN([C@H](C)c3cc(C(F)(F)F)ccc3C(F)(F)F)CC1)CC2)C1CC1` (single isomer, unassigned) [Example 11, (2S,3R)-3-((S or R)-2-((1-((R)-1-(2,5-bis(trifluoromethyl)phenyl)ethyl)piperidin-4-yl)methyl)chroman-7-yl)-3-cyclopropyl-2-methylpropanoic Acid] the value was 14.1 nM; for `C[C@H](C(=O)O)[C@H](c1ccc2c(c1)OC(C1CC3CC1CN3[C@H](C)c1cc(F)ccc1C(F)(F)F)CC2)C1CC1` (single isomer, unassigned) [Example 20], 13.4 nM. On to `C[C@H](C(=O)O)[C@H](c1ccc2c(c1)OC(C1CC3CC1CN3[C@H](C)c1cc(F)ccc1C(F)(F)F)CC2)C1CC1` (single isomer, unassigned) [Example 21], for which the EC50 is 3.14 nM. The result for `C[C@H](C(=O)O)[C@H](c1ccc2c(c1)OC(C1[C@@H]3CC[C@@H]1CN([C@@H](C)c1cc(C(F)(F)F)ccc1C(F)(F)F)C3)CC2)C1CC1` (single isomer, unassigned) [Example 24] reads 9.66 nM. The compound `C[C@H](C(=O)O)[C@H](c1ccc2c(c1)OC(C1[C@@H]3CC[C@@H]1CN([C@@H](C)c1cc(C(F)(F)F)ccc1C(F)(F)F)C3)CC2)C1CC1` (single isomer, unassigned) [Example 25] registered an EC50 of 67.3 nM.

`C[C@H](C(=O)O)[C@H](c1ccc2c(c1)OC(C1[C@@H]3CC[C@H]1CN([C@@H](C)c1cc(F)ccc1C(F)(F)F)C3)CC2)C1CC1` (single isomer, unassigned) [Example 26] gave an EC50 of 9.68 nM. For `C[C@H](C(=O)O)[C@H](c1ccc2c(c1)OC(C1[C@@H]3CC[C@@H]1CN([C@@H](C)c1cc(F)ccc1C(F)(F)F)C3)CC2)C1CC1` (single isomer, unassigned) [Example 27, (2S,3R)-3-cyclopropyl-3-((2R or 2S)-2-((1R,5S)-3-((S)-1-(5-fluoro-2-(trifluoromethyl)phenyl)ethyl)-3-azabicyclo[3.2.1]-octan-8-yl)chroman-7-yl)-2-methylpropanoic acid] the value was 20.2 nM. For `C[C@H](C(=O)O)[C@H](c1ccc2c(c1)OC(C1[C@@H]3CC[C@@H]1CN([C@@H](C)c1cc(F)ccc1C(F)(F)F)C3)CC2)C1CC1` (single isomer, unassigned) [Example 28, (2S,3R)-3-cyclopropyl-3-((2R or 2S)-2-((1R,5S)-3-((S)-1-(5-fluoro-2-(trifluoromethyl)phenyl)ethyl)-3-azabicyclo[3.2.1]-octan-8-yl)chroman-7-yl)-2-methylpropanoic acid] the value was 28.7 nM. `C[C@H](C(=O)O)[C@H](c1ccc2c(c1)OC(C1[C@@H]3CC[C@H]1CN([C@@H](C)c1cc(F)ccc1C(F)(F)F)C3)CC2)C1CC1` (single isomer, unassigned) [Example 29] had an EC50 of 72.8 nM. `C[C@H](C(=O)O)[C@H](c1ccc2c(c1)OC(C1[C@@H]3CC[C@@H]1CN([C@@H](C)c1cc(F)ccc1C(F)(F)F)C3)CC2)C1CC1` (single isomer, unassigned) [Example 30, (2S,3R)-3-cyclopropyl-3-((2R or 2S)-2-((1R,5S)-3-((S)-1-(5-fluoro-2-(tri-fluoromethyl)phenyl)eth-yl)-3-azabicyclo[3.2.1]-octan-8-yl)chroman-7-yl)-2-methylpropanoic acid] had an EC50 of 453 nM. For `C[C@H](C(=O)O)[C@H](c1ccc2c(c1)OC(C1[C@@H]3CC[C@@H]1CN([C@@H](C)c1cc(F)ccc1C(F)(F)F)C3)CC2)C1CC1` (single isomer, unassigned) [Example 31, (2S,3R)-3-cyclopropyl-3-((2R or 2S)-2-((1R,5S)-3-((S)-1-(5-fluoro-2-(trifluoromethyl)phenyl)ethyl)-3-azabicyclo[3.2.1]-octan-8-yl)chroman-7-yl)-2-methylpropanoic acid] the value was 32.6 nM; for `CC(C(=O)O)C(c1ccc2c(c1)OC(C1CC3CCCC(C1)N3C(C)c1cc(F)ccc1C(F)(F)F)CC2)C1CC1` (single isomer, unassigned) [Example 34], 29.4 nM. With `CC(C(=O)O)C(c1ccc2c(c1)OC(C1CC3CCCC(C1)N3C(C)c1cc(F)ccc1C(F)(F)F)CC2)C1CC1` (single isomer, unassigned) [Example 35], the EC50 stood at 90.9 nM.

The values are drawn from patent publication US11072602B2, “Antidiabetic heterocyclic compounds” (Merck Sharp & Dohme Corp., priority 2016, dated 2021).
